# Entries after “also recorded” stand apart in the source; their conditions may differ. Where two headings read alike, the source gives them in different places.
# Key:
# Kv7.2/3 channels = molecular target: T1, Kv7.2/3 channels (Homo sapiens, UniProt O43525+O43526); assay: Kv7.2/3 channels coexpressed in CHO cells, whole-cell patch-clamp; format: cell-based; settings: for Activity: M-channel modulation, Kv7.2 and Kv7.3 subunits coexpressed in CHO cells; for ΔV50 (mV): left-shift of the activation curve of Kv7.2/3 channels; for EC50: read-out: EC50
# T1 construct: expressed in transfected cells; host or cells: CHO cells
# Experimental: Chinese hamster ovary (CHO) cells were grown in Dulbecco's modified Eagle's medium (DMEM) supplemented with 2 mM glutamine, 10% fetal calf serum and antibiotics. Briefly, 40,000 cells seeded on poly-D-lysine-coated glass coverslips (13 mm diameter) in a 24-multiwell plate were transfected with pIRES-CD8 (0.5 μg) as a marker for transfection, and with Kv7.2 (0.5 μg) and Kv7.3 (0.5 μg) or TRPV1 […] or TRPV6 […].
# For electrophysiology, transfected cells were visualized approximately 40 hours following transfection, using anti-CD8 antibody-coated beads. Transfection was performed using Fugene 6 (Roche, Indianapolis Ind., USA) according to the manufacturer's protocol.
# Voltage-clamp recordings in CHO cells were performed, using the whole-cell configuration of the patch-clamp technique. Signals were amplified using an Axopatch 200B patch-clamp amplifier (Molecular Devices, Sunnyvale, Calif.), sampled at 2 kHz and filtered at 800 Hz via a 4-pole Bessel low pass filter. […] The patch pipettes were pulled from borosilicate glass (Warner Instrument Corp, USA) with a resistance of 2-5 MΩ. For K^+ current recordings in CHO cells, the intracellular pipette solution contained (in mM): 130 KCl, 1 MgCl2, 5 K2ATP, 5 EGTA, 10 HEPES, adjusted with KOH to pH 7.4 (290 mOsm). The extracellular solution contained (in mM): 140 NaCl, 4 KCl, 1.8 CaCl2, 1.2 MgCl2, 11 glucose, 5.5 HEPES, adjusted with NaOH to pH 7.4 (310 mOsm).
# Data analysis was performed using the Clampfit program (pClamp 9.2, Molecular Devices), Microsoft Excel (Microsoft) and Prism 4.0 (GraphPad). Chord conductance (G) was calculated by using the following equation: G=I/(V−Vrev) where I corresponds to the current amplitude measured at the end of the pulse and Vrev, the calculated reversal potential. G was estimated at various test voltages V and then, normalized to a maximal conductance value, Gmax. Activation curves were fitted by one Boltzmann distribution: G/Gmax=1/{1+exp[(V50−V)/s]} where V50 is the voltage at which the current is half-activated and s is the slope factor. All data were expressed as mean±SEM. Statistically significant differences were assessed by Student's t-test. Analysis of sEPSCs and sIPSCs was done using the Clampfit program (pClamp 9.2, Molecular Devices) and included evaluation of the individual events as well as the average event amplitude and the integral of the event (total charge transfer).
# In these studies, the impact of the compounds on M-channel activity was measured by the heterologous coexpression of Kv7.2 and Kv7.3 subunits in CHO cells.
# KCNQ2 mutant R207W = molecular target: T2, KCNQ2 mutant R207W (Homo sapiens, UniProt O43526, R207W); format: cell-based
# T2 construct: expressed in transfected cells; host or cells: CHO cells
# Description: FIGS. 10A-D present the potentiating effect of NH29, an exemplary channel opener compound according to embodiments of the present invention, on wild type KCNQ2 (FIGS. 10A and 10B) and R207W mutant (FIGS. 10C and 10D) channels, as expressed in activation curve measurements, showing that NH29 left-shifts the activation curve (ΔV50) by −15.5 mV and −5.5 mV in the case of the wild-type and the mutant, respectively, and showing that NH29 enhances the current of wild-type and the mutant by about 3.4-fold (at −40 mV) and 1.5-fold (at −20 mV), respectively.
# FIGS. 11A-F present the potentiating effect of NH29, an exemplary channel opener compound according to embodiments of the present invention, and Retigabine, on KCNQ2 mutants R207W and W236L mutant. Shown are representative traces recorded from CHO cell transfected with the KCNQ2 mutant R207W 0, 1 and 4-4.5 minutes after external application of 25 μM of NH29 and wherein the membrane potential was stepped from −90 mV holding potential to −20 mV for 1.5 seconds pulse duration (FIG. 11A), or 0, 1 and 4 minutes after external application of 25 μM of Retigabine wherein the membrane potential was stepped from −90 mV holding potential to −40 mV for 1.5 seconds pulse duration (FIG. 11B). FIGS. 11C and 11D show representative traces recorded from CHO cells transfected with the KCNQ2 mutant W236L 0, 1 and 6 minutes after external application of 25 μM of NH29 (FIG. 11C) or 0 and 5 minutes after external application of 10 μM of Retigabine (FIG. 11D) and wherein the membrane potential was stepped from −90 mV holding potential to −40 mV for 1.5 seconds pulse duration. FIG. 11E presents superimposed traces, showing the effects of Retigabine (RTG) and NH29 on the channel activity of KCNQ2 mutant W236L as measured at −40 mV; and FIG. 11F presents a bar diagram comparing the potentiating effect of NH29 and Retigabine on native KCNQ2 and KCNQ2 mutants, wherein the opener effect is expressed as percent of the control current in the absence of the opener.
# Voltage-clamp recordings in CHO cells were performed, using the whole-cell configuration of the patch-clamp technique. Signals were amplified using an Axopatch 200B patch-clamp amplifier (Molecular Devices, Sunnyvale, Calif.), sampled at 2 kHz and filtered at 800 Hz via a 4-pole Bessel low pass filter. Data were acquired using pClamp 9.2 software (Molecular Devices) and an IBM compatible Pentium IV computer in conjunction with a DigiData 1322A interface (Molecular Devices). The patch pipettes were pulled from borosilicate glass (Warner Instrument Corp, USA) with a resistance of 2-5 MΩ. For K^+ current recordings in CHO cells, the intracellular pipette solution contained (in mM): 130 KCl, 1 MgCl2, 5 K2ATP, 5 EGTA, 10 HEPES, adjusted with KOH to pH 7.4 (290 mOsm). The extracellular solution contained (in mM): 140 NaCl, 4 KCl, 1.8 CaCl2, 1.2 MgCl2, 11 glucose, 5.5 HEPES, adjusted with NaOH to pH 7.4 (310 mOsm). Series resistances (3-13 MΩ) were compensated (75-90%) and periodically monitored.
# [1] = system: maximal electroshock seizure model (MES) in ICR mice; assay: Maximal electroshock seizure test (MES); format: in vivo; settings: 30 minutes before electroshock, data not shown
# Experimental: The anti-convulsant effect was measured by the maximal electroshock seizure model (MES) in ICR mice as previously described. The procedures followed for experimentation and maintenance of the animals were approved by the animal research ethics committee of Tel Aviv University and in accordance with the Guide for the Care and Use of Laboratory Animals (1996, National Academy of Sciences, Washington D.C.). Briefly, maximal electroshock was induced in adult mice by means of two transcorneal electrodes delivering an alternative current of 50 mA at 60 Hz for 0.2 sec using rodent shocker (Hugo Sachs Electronik, type 221). […] The compounds, dissolved in 0.9% saline, were administered intraperitoneally 30 minutes before the electroshock was performed. Animals failing to show tonic hind limb extension were scored as protected and were expressed in percentage.
# COX = assay: Anti-COX activity in cell culture, CT26 and D122 cell lines (results in words); format: cell-based, mouse; settings: COX-dependent synthesis of PGE2
# Experimental: Mouse colon adenocarcinoma CT26 and mouse lewis lung carcinoma D122 cells were grown in DMEM (D122) or RPMI (CT26) supplemented with 10% fetal calf serum, 4% glutamine, 1% penicillin-streptomycin-nystatin and 3% non essential amino acids (D122) and were kept in a humidified 37° C. incubator with 5% CO2. For the COX activity assays, cells were grown onto 24 multi-well plates.
# Before the assay, cells were washed with serum-free medium; then the tested compounds were added to the medium and incubated for 30 minutes at 37° C. after which 30 μM arachidonic acid were added and incubated for additional 20 minutes. At the end of the incubation period, 10 μM Indomethacin were added to stop the reaction and medium was transferred to another 24 multi-well plate for measuring PGE2 production by radioimmunoassay (DuPont-NEN; Boston Mass.) according to manufacturer protocol. Protein determination was assayed on scraped cells using the Bradford method (1976) [Bradford M. M. 1976. Anal. Biochem. 72:248-254], with BSA as a standard and was used to normalize the amount of PGE2 production.
# The anti-COX activity of NH25, NH29 and NH30 was examined in Mouse colon adenocarcinoma CT26 and mouse lewis lung carcinoma D122 cell lines. Cells were incubated with each of the tested compounds and the level of the COX-dependent synthesis of PGE2 was quantified using radioimmunoassay techniques.
# [2] = opener potency, concentration-dependent left-shift in half-activation potential ΔV50, sigmoidal fit
# [3] = compounds whose Activity is Blocker
# T2 sequence (O43526 whole entry R207W): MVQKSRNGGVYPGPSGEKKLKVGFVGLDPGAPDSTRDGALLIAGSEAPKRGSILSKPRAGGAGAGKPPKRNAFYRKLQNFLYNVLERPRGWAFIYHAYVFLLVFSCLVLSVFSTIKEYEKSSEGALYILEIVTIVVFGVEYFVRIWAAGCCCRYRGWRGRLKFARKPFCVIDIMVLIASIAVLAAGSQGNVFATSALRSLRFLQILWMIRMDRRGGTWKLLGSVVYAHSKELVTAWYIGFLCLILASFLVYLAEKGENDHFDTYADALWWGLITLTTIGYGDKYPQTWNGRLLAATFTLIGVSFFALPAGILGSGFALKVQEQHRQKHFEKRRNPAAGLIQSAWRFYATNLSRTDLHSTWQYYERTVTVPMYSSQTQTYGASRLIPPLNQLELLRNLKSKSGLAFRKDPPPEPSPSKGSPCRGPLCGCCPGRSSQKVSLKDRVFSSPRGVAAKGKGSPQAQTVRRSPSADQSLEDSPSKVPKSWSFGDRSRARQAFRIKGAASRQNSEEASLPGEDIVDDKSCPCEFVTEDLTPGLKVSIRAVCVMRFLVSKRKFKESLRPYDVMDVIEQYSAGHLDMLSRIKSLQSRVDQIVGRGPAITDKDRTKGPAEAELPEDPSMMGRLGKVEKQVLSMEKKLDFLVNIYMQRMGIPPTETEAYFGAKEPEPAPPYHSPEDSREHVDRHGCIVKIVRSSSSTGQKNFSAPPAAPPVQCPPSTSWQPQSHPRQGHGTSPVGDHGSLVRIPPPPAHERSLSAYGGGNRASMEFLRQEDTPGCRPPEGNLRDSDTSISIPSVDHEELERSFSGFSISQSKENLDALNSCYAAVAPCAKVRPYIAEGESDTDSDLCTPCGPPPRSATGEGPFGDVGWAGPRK
Activity (Kv7.2/3 channels),Molecule,also measured
Opener,O=C(O)Cc1cc([N+](=O)[O-])ccc1Nc1c(Cl)cccc1Cl [NH24],
Opener,Cc1cccc(Nc2ccccc2C(=O)NCCOCCO)c1C [NH15],ΔV50 (mV) (Kv7.2/3 channels): −8.4 mV; EC50 (Kv7.2/3 channels; [2]): 3 µM
Opener,O=C(Cc1ccccc1Nc1c(Cl)cccc1Cl)OCCOCCO [NH6],ΔV50 (mV) (Kv7.2/3 channels): −18.7 mV; EC50 (Kv7.2/3 channels; [2]): 18 µM
totally inactive,COCCOCCOCCOCCOC(=O)Cc1ccccc1Nc1c(Cl)cccc1Cl [NH8],
Opener,Cc1c(Cl)cccc1Nc1ccccc1C(=O)NCCOCCO [NH18],ΔV50 (mV) (Kv7.2/3 channels): −3.7 mV; EC50 (Kv7.2/3 channels; [2]): 6 µM
Opener,O=C(Cc1cc([N+](=O)[O-])ccc1Nc1c(Cl)cccc1Cl)NCCO [NH30],ΔV50 (mV) (Kv7.2/3 channels): −12.2 mV; EC50 (Kv7.2/3 channels; [2]): 17 µM; anti-COX activity (COX): did not exhibit anti-COX activity
totally inactive,Cc1c(Cl)cccc1Nc1ccccc1C(=O)OCC(C)C [NH10],
Opener,O=C(Cc1ccccc1Nc1c(Cl)cccc1Cl)NCCO [NH27],
Opener,CN(CCO)C(=O)Cc1ccccc1Nc1c(Cl)cccc1Cl [NH5],
totally inactive,CC(C)COC(=O)c1ccccc1Nc1cccc(C(F)(F)F)c1 [NH11],
Opener,O=C(Cc1ccccc1Nc1c(Cl)cccc1Cl)NCCOCCO [NH14],ΔV50 (mV) (Kv7.2/3 channels): −12.6 mV
Opener,O=C(Cc1ccccc1Nc1c(Cl)cccc1Cl)OCCO [NH7],ΔV50 (mV) (Kv7.2/3 channels): −4.1 mV
Opener,O=C(NCCOCCO)c1ccccc1Nc1cccc(C(F)(F)F)c1 [NH16],ΔV50 (mV) (Kv7.2/3 channels): −5.5 mV; EC50 (Kv7.2/3 channels; [2]): 9 µM
totally inactive,COCCOCCOC(=O)Cc1ccccc1Nc1c(Cl)cccc1Cl [NH13],

# The remaining lines, values behind:
Molecule,Activity (Kv7.2/3 channels),also measured
"Cc1cccc(Nc2ccccc2C(=O)O)c1C [mefenamate, reference compound]",potent M-channel openers,
CC(C)COC(=O)Cc1ccccc1Nc1c(Cl)cccc1Cl [NH9],potent M-channel blockers; also recorded: Blocker,EC50 (Kv7.2/3 channels; [3]): 50 µM
"COc1ccc2cc([C@H](C)C(=O)O)ccc2c1 [naproxen, reference compound]",do not activate Kv7.2/3 channels,
"O=C(O)c1ccccc1Nc1cccc(C(F)(F)F)c1 [flufenamate, reference compound]",potent M-channel openers,
Zinc pyrithione [reference compound],,activation of S4 mutant R207W (KCNQ2 mutant R207W): activate very potently
"CC(C(=O)O)c1cccc(Oc2ccccc2)c1 (stereo not shown) [fenoprofen, reference compound]",do not activate Kv7.2/3 channels,
O=C1NC(=O)C(c2ccccc2)(c2ccccc2)N1 [phenyloin],,protection in MES ([1]; 20 mg/kg intraperitoneal): fully prevented hind limb extension
CCCC(CCC)C(=O)[O-].[Na+] [sodium valproate],,protection in MES ([1]; 500 mg/kg intraperitoneal): fully prevented hind limb extension
"Cc1c(Cl)cccc1Nc1ccccc1C(=O)O [tolfenamate, reference compound]",potent M-channel openers,
"O=C(O)Cc1ccccc1Nc1c(Cl)cccc1Cl [Diclofenac, reference compound]",Opener,EC50 (Kv7.2/3 channels; [2]): 2.6 µM
O=C(Cc1ccccc1Nc1c(Cl)cccc1Cl)OCC1CO1 (stereo not shown) [NH21],potent M-channel blockers; also recorded: Blocker,EC50 (Kv7.2/3 channels; [3]): 100 µM
"CC(C(=O)O)c1ccc(-c2ccccc2)c(F)c1 (stereo not shown) [flurbiprofen, reference compound]",do not activate Kv7.2/3 channels,
"Cc1ccc(Cl)c(Nc2ccccc2C(=O)O)c1Cl [Meclofenamic, Meclofenamic acid, reference compound]",Opener,ΔV50 (mV) (Kv7.2/3 channels): −22.7 mV; EC50 (Kv7.2/3 channels; [2]): 25 µM
O=C(Cc1cc([N+](=O)[O-])ccc1Nc1c(Cl)cc([N+](=O)[O-])cc1Cl)NCCO [NH28],Opener,

# Reference: patent publication US9403756B2, “N-phenyl anthranilic acid derivatives and uses thereof” (Ramot at Tel-Aviv University Ltd., priority 2007, dated 2016)
